From ChEMBL document CHEMBL4619814, “Identification and Development of 1,4-Diaryl-1,2,3-triazolo-Based Ureas as Novel FLT3 Inhibitors” (ACS Med Chem Lett, 2020)
Active and inactive are the calls of the source. The rule behind the calls is not given here.

What was measured:
[1] = molecular target: T1, Receptor-type tyrosine-protein kinase FLT3 (Homo sapiens, UniProt P36888)
T1 sequence (P36888 whole entry): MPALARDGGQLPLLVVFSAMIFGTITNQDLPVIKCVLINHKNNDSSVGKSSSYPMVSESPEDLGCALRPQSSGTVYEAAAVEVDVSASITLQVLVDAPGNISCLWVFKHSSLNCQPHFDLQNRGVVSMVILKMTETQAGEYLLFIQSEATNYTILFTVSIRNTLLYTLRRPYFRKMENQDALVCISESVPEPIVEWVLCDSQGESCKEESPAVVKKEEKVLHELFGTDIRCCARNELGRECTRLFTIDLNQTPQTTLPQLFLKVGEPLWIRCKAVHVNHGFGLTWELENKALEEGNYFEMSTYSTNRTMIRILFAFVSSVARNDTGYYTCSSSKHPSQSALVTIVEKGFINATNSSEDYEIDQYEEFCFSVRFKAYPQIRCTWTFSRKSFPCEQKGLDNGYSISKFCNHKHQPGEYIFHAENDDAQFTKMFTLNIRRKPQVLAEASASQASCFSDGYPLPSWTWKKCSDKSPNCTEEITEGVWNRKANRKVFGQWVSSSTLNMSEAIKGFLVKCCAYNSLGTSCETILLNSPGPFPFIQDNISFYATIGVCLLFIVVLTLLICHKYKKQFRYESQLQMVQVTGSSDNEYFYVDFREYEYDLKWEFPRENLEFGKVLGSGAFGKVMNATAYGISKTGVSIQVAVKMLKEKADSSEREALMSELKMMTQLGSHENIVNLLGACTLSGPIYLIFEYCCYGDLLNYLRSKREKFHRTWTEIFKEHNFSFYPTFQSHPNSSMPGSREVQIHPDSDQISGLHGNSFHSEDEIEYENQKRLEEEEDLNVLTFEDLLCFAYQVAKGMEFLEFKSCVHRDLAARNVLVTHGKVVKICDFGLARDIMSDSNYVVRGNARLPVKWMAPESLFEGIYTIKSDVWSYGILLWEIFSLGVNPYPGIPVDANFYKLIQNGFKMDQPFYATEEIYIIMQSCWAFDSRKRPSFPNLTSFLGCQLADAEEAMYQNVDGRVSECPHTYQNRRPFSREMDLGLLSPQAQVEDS
Description: Binding affinity to recombinant human FLT3 (592 to 969 residues) expressed in bacterial expression system by Kinomescan method

[2] = molecular target: Receptor-type tyrosine-protein kinase FLT3 (Homo sapiens, UniProt P36888, D835V/ITD)
Description: Binding affinity to recombinant human FLT3 ITD/D835V double mutant expressed in bacterial expression system by Kinomescan method

[3] = system: Receptor-type tyrosine-protein kinase FLT3 (Homo sapiens), P36888 [UNDEFINED MUTATION]; test: Inhibition of FLT3 ITD mutant expressed in human MV4-11 cells assessed as reduction in STAT5 level at > 20 nM incubated for 6 hrs by Western blot analysis relative to control; format: cell-based
[4] = molecular target: Receptor-type tyrosine-protein kinase FLT3 (Homo sapiens) (UniProt P36888); test: Inhibition of FLT3 in human NB4 cells assessed as reduction in FLT3 phosphorylation at 0.8 to 500 nM incubated for 6 hrs by Western blot analysis; format: cell-based; details: NB-4
MV4-11 [5] = test: Induction of cell cycle arrest in human MV4-11 cells assessed as G0/G1 phase at 4 nM incubated for 48 hrs by propidium iodide staining based flow cytometry analysis (reference value: 54.82 %); format: functional
MV4-11 [6] = test: Induction of cell cycle arrest in human MV4-11 cells assessed as S phase at 20 nM incubated for 48 hrs by propidium iodide staining based flow cytometry analysis (reference value: 20.14 %); format: functional
MV4-11 [7] = test: Induction of cell cycle arrest in human MV4-11 cells assessed as G2/M phase at 20 nM incubated for 48 hrs by propidium iodide staining based flow cytometry analysis (reference value: 24.88 %); format: functional
MV4-11 [8] = test: Induction of cell cycle arrest in human MV4-11 cells assessed as S phase at 100 nM incubated for 48 hrs by propidium iodide staining based flow cytometry analysis (reference value: 20.14 %); format: functional
MV4-11 [9] = test: Induction of cell cycle arrest in human MV4-11 cells assessed as G2/M phase at 100 nM incubated for 48 hrs by propidium iodide staining based flow cytometry analysis (reference value: 24.88 %); format: functional
MV4-11 [10] = test: Induction of apoptosis in human MV4-11 cells assessed as viable cells at 4 nM incubated for 48 hrs by annexin V and 7-AAD staining based flow cytometry analysis (reference value: 90.47 %); format: functional; details: MV4-11, 48 h, read-out: Activity
MV4-11 [11] = test: Induction of apoptosis in human MV4-11 cells assessed as necrotic cells at 4 nM incubated for 48 hrs by annexin V and 7-AAD staining based flow cytometry analysis (reference value: 0.91 %); format: functional
MV4-11 [12] = test: Induction of apoptosis in human MV4-11 cells assessed as necrotic cells at 20 nM incubated for 48 hrs by annexin V and 7-AAD staining based flow cytometry analysis (reference value: 0.91 %); format: functional
MV4-11 [13] = test: Induction of apoptosis in human MV4-11 cells assessed as viable cells at 100 nM incubated for 48 hrs by annexin V and 7-AAD staining based flow cytometry analysis (reference value: 90.47 %); format: functional; details: MV4-11, 48 h, read-out: Activity
MV4-11 [14] = test: Induction of cell cycle arrest in human MV4-11 cells assessed as reduction in CDK2 expression at 0.16 to 100 nM by Western blot analysis; format: functional, cell-based
MV4-11 [15] = test: Induction of cell cycle arrest in human MV4-11 cells assessed as reduction in CDK4 expression at 0.16 to 100 nM by Western blot analysis; format: functional, cell-based
MV4-11 [16] = test: Induction of cell cycle arrest in human MV4-11 cells assessed as reduction in Cyclin E expression at 0.16 to 100 nM by Western blot analysis; format: functional, cell-based
MV4-11 [17] = test: Induction of apoptosis in human MV4-11 cells assessed as increase in Caspase-9 cleavage at 0.16 to 100 nM by Western blot analysis; format: functional, cell-based
[18] = AUC in Sprague-Dawley rat at 5 mg/kg, iv; format: ADME, organism-based; details: in vivo
[19] = Cmax in Sprague-Dawley rat at 5 mg/kg, iv; format: ADME, organism-based; parameters: dose 5 mg/kg, route intravenous; details: in vivo
[20] = Tmax in Sprague-Dawley rat at 5 mg/kg, iv; format: ADME, organism-based; details: in vivo
[21] = Half life in Sprague-Dawley rat at 5 mg/kg, iv; format: ADME, organism-based; details: in vivo
[22] = Tmax in Sprague-Dawley rat at 25 mg/kg, po; format: ADME, organism-based; details: in vivo
[23] = Half life in Sprague-Dawley rat at 25 mg/kg, po; format: ADME, organism-based; details: in vivo
[24] = Oral bioavailability in Sprague-Dawley rat at 25 mg/kg; format: ADME, organism-based; details: in vivo
MV4-11 [25] = test: Antitumor activity at human MV4-11 cells xenografted in CB17-SCID mouse assessed as tumor growth inhibition at 40 mg/kg, po administered for 10 days and measured on day 10 relative to control; format: functional; details: MV4-11, po, 240 h, read-out: TGI
[26] = molecular target: Platelet-derived growth factor receptor beta (Homo sapiens, UniProt P09619)
Platelet-derived growth factor receptor beta, sequence (P09619 whole entry): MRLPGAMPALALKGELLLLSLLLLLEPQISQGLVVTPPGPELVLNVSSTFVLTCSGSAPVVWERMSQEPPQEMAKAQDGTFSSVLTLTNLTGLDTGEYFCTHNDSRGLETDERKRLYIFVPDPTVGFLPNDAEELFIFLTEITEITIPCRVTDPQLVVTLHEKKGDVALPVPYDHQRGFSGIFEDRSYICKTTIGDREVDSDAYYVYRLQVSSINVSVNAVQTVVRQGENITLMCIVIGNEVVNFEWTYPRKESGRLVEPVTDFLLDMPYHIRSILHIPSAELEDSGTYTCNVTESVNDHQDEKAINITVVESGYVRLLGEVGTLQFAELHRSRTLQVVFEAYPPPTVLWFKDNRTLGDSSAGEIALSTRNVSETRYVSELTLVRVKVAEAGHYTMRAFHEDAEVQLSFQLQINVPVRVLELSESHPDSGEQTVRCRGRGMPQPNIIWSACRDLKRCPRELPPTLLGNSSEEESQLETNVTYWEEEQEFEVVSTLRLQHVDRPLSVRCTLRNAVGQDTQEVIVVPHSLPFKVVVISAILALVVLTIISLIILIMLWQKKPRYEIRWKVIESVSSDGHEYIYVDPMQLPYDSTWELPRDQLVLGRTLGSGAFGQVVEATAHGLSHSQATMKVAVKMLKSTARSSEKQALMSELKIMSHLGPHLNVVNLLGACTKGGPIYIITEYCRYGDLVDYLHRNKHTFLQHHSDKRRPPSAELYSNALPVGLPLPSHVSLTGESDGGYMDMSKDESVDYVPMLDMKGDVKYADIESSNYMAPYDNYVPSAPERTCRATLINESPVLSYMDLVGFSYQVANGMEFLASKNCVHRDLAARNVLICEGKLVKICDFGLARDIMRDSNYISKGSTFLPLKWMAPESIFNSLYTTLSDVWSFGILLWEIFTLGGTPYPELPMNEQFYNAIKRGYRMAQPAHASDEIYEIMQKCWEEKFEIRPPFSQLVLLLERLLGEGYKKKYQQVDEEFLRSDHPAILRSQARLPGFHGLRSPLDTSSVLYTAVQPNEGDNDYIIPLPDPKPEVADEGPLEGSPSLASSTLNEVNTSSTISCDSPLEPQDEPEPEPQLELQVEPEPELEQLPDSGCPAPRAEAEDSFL
Description: Binding affinity to recombinant human PDGFRB (582 to 1009 residues) expressed in bacterial expression system by Kinomescan method

U-937 = test: cells; details: Homo sapiens, U-937, 72 h
Description: Cytotoxicity against human U937 cells assessed as reduction in cell viability incubated for 72 hrs by CCK8 assay

NB-4 = test: cells; details: Homo sapiens, NB-4, 72 h
Description: Cytotoxicity against human NB4 cells assessed as reduction in cell viability incubated for 72 hrs by CCK8 assay

CC(C)(C)c1cc(NC(=O)Nc2ccc(-c3cn(-c4ccc(OCCN5CCOCC5)cc4Cl)nn3)cc2)no1
Kd [1]: 3.5 nM | Kd [2]: 10000 nM | inhibition [3]: 100% | inhibition [4]: inactive | Activity (MV4-11 [5]): 66.16% | Activity (MV4-11 [6]): 5.68% | Activity (MV4-11 [7]): 6.53% | Activity (MV4-11 [8]): 4.98% | Activity (MV4-11 [9]): 5.11% | viability at 0.004 µM (MV4-11 [10]): 88.7% | Activity (MV4-11 [11]): 1.15% | Activity (MV4-11 [12]): 1.09% | viability at 0.1 µM (MV4-11 [13]): 71.6% | Activity (MV4-11 [14]): Active | Activity (MV4-11 [15]): Active | Activity (MV4-11 [16]): Active | Activity (MV4-11 [17]): Active | AUC [18]: 21200 ng·h/mL | Cmax [19]: 6850 ng/mL | Tmax [20]: 0.25 h | half-life [21]: 5.11 h | Tmax [22]: 4 h | half-life [23]: 6.77 h | bioavailability [24]: 35.8% | inhibition in vivo at 40 mg/kg (MV4-11 [25]): 80.1% | Kd [26]: 8.1 nM | GI50 (U-937): > 3000 nM | GI50 (NB-4): > 3000 nM
